Test results taken from US10704075B2, “Method for determining the reaction of a microorganism to its exposure to a chemical compound” (bioMérieux, priority 2015, dated 2020).
Converted amounts (≈) assume the structure as drawn.

How the values were obtained:
[1] = system: Escherichia coli strain ATCC 25922 called "EC10"; experiment: Raman spectroscopy analysis of individual bacteria exposed to an antibiotic (method of the invention), strain EC10; format: cell-based; settings: Raman, distance to gentamicin reference signature, tested 0, 0.005, 0.015, 0.064 μg/mL
Method: (§1) The retained conditioning device is constituted of two fluidic chambers and two antibiotic concentrations are tested: c0: “Without antibiotic” and “Resistance test”.
Let c1 be the concentration of gentamicin: c1=8 μg/mL, which corresponds to the doubling of the concentration 4 μg/mL corresponding to the clinical breakpoint as defined by the EUCAST. The objective of this test is to determine whether the bacterium is considered as resistant according to the definitions provided by the EUCAST.
A solution containing the bacteria to be tested is used as a test sample. This solution is obtained by suspending 5.10^7 CFU/mL in order to have a concentration potentially encountered in a clinical sample, for example a urine collection. This bacteria solution is brought into contact with the interface I of the device functionalized by adsorbing polyethylenimine (PEI) (generic capture). After a capture time of 10 minutes allowing the bacteria to come into contact with the functionalization, the interface I is washed with a water solution, this optional step allowing to eliminate the surplus of uncaptured bacteria still in solution. The physiological medium retained in this example is constituted of a poorly enriched mixture of Bouillon TSB-T Trypcase Soy broth (for example of the reference 42100 of bioMérieux) and of PBS 10× (for example obtained from the PBS tablets of the reference A9162, 0100 of the brand AppliChem) in a 1:9 ratio. After dividing this physiological medium into two fractions, an amount of gentamicin (for example of the reference G1397-10ML of Sigma-Aldrich) is added respectively to each of these fractions, allowing to obtain a different concentration of gentamicin c0 or c1. The solutions of concentrations c0 and c1 produced accordingly are respectively introduced into the chambers C0 or C1. The bacteria captured directly from the sample on the surface I are thus exposed, in a suitable medium, to a different antibiotic concentration depending on the chamber in which they are present.
The device is then heated in order to reach a temperature of 37° C. for two hours and then placed in measurement position on the micro-spectrometer. The marking of the captured bacteria is carried out by an automatic procedure based on image analysis, by a conventional procedure for detecting particles, acquired by means of the micro-spectrometer camera and a suitable light source. This marking allows acquiring automatically a series of Raman spectra (S0 and S1, respectively) acquired on individual bacteria present in each chamber C0 and C1. The number of spectra to be acquired for constituting a dataset depends on the level of requirement on the performances of the tests to be carried out. […]

[2] = system: Escherichia coli strain ATCC 25922; settings: cited from earlier work
[3] = system: Staphylococcus aureus strain ATCC 25923 called "SA44"; experiment: Reference methods (bioMérieux ETEST OX 256 or VITEK card P631), strain SA44; format: cell-based
[4] = system: Staphylococcus aureus strain ATCC 25923 called "SA44"; experiment: Raman spectroscopy analysis of individual bacteria exposed to an antibiotic (method of the invention), strain SA44; format: cell-based
Method: as §1
Let c1 be the concentration of oxacillin: c1=8 μg/mL which corresponds to multiplying by a factor of 32 the concentration of 0.25 μg/mL which corresponds to the clinical breakpoint as defined by the EUCAST. The objective of this test is to determine whether the bacterial strain is considered as resistant according to the definitions provided by the EUCAST.
A solution containing the bacteria to be tested is used as a test sample. This solution is obtained by suspending 5.10^7 CFU/mL in order to have a concentration potentially encountered in a clinical sample, for example a urine collection. The bacteria can come from a culture in a liquid medium or a culture in agar medium in Petri dish. This bacteria solution is brought into contact with the interface I of the device functionalized by adsorbing polyethylenimine (PEI) (generic capture). After a capture time of 10 minutes allowing the bacteria to come into contact with the functionalization, the interface I is washed with a water solution, this optional step allowing to eliminate the surplus of uncaptured bacteria still in solution. […]

SMILES | concentrations at which an antibiotic effect is detected [1] | EUCAST known MIC [2] | MIC ([3]; Staphylococcus aureus, ATCC25923, ETEST OX 256 or VITEK card P631) | phenotype according to the EUCAST / reference ([3]; from reference MIC) | sensitivity phenotype according to the invention ([4]; Raman test at 8 μg/mL) | percentage of test samples classified as "ATB effect" ([4]; oxacillin 8 μg/mL, 2 hours at 37° C., N=9, M=337, FIG. 12 (liquid medium cultures))
O=C(O)c1cn(C2CC2)c2cc(N3CCNCC3)c(F)cc2c1=O [ciprofloxacin] | greater than 0.005 μg/mL | 0.008 µg/mL |  |  |  | 
Cc1onc(-c2ccccc2)c1C(=O)N[C@@H]1C(=O)N2[C@@H]1SC(C)(C)[C@@H]2C(=O)O [oxacillin] |  |  | 0.25 µg/mL (≈ 0.623 µM) | not resistant | sensitive | greater than 97%
